Like-named read-outs stand apart in the source and are kept apart here.
Legend:
[1] = in vitro, 1994, cited from earlier work
clinical [2] = conditions: female, human, in vivo, ip, 20 mg/m2, Cmax
[3] = human, in vivo, ip; for MRT / T1/2: female
[4] = parameters: method as in Rowinsky et al, 1992; Verweij et al, 1993; Herben et al, 1996; conditions: ref Rowinsky et al, 1992, Verweij et al, 1993, Herben et al, 1996, cited from earlier work
ovarian cancer = system: ovarian cancer; parameters: method as in earlier work; conditions: patients who failed platinum based chemotherapy; ref Neijt et al, 1991; Kudelka et al, 1996; Ten Bokkel Huinink et al, 1997; cited from earlier work
[5] = system: human tumor colony forming units; parameters: method as in Burris et al, 1992; conditions: in vitro; ref Burris et al, 1992; cited from earlier work
[6] = in vivo
DNA topoisomerase I = system: DNA topoisomerase I; parameters: method as in Kingsbury et al, 1991; conditions: in vitro; ref Kingsbury et al, 1991; cited from earlier work
[7] = cited from earlier work
clinical [8] = conditions: female, human, in vivo, ip
[9] = cited from earlier work; remark: listed apart in the source
[10] = female, human, in vivo
[11] = Phase I toxicity of IP topotecan (WHO grading)
recurrent ovarian cancer = test: Tumour responses to IP topotecan; type: in vivo, human

For CC[C@@]1(O)C(=O)OCc2c1cc1n(c2=O)Cc2cc3c(CN(C)C)c(O)ccc3nc2-1 [topotecan, Topotecan], the Cytotoxic concentrations ([1]; ref Pizao et al) is listed as 13.7 to 229 µg/L, the Cytotoxic concentration ([1]; ref Tanizawa et al) is listed as 128 µg/L and the Cmax (clinical [2]) is listed as 12100 ng/mL. The MRT ([3]; 10 mg/m2) was 2.6 h, the T1/2 ([3]; 10 mg/m2) was 1.8 h and the MRT ([3]; 30 mg/m2) was 3.4 h. The T1/2 ([3]; 30 mg/m2) was 2.3 h, the CL [3] was 0.8 L/h/m2 and the Form at equilibrium ([4]; pH 7.4) was “open-ring form predominates”. The “Stability in infusion fluids” value ([4]; pH < 4.0) was “stable”, the Stability in plasma ([4]; plasma) was “unstable” and the Duration of response (ovarian cancer) was 22-32 weeks. The Threshold concentration for cytotoxic activity, continuous exposure [5] was 100 µg/L, the “Patients with nausea and/or vomiting grade I-II” value ([6]; female, human) was 12 patients and the “Platelets toxicity Grade III, worst haematologic toxicity (number)” value ([6]; female, human, 74 cycles) was 2. The “Platelets toxicity Grade IV, worst haematologic toxicity (number)” value ([6]; female, human, 74 cycles) was 0, the “WBC toxicity Grade III, worst haematologic toxicity (number)” value ([6]; female, human, 74 cycles) was 5 and the “WBC toxicity Grade IV, worst haematologic toxicity (number)” value ([6]; female, human, 74 cycles) was 1. The Duration of myelosuppression ([6]; female, human, ip) was under 7 days, the “Recommended dose for further phase II trials” value ([6]; female, human, ip) was 20 mg/m2 and the Bleeding episodes [6] was “No bleeding episodes”. The “Patients with abdominal pain grade I” value [6] was “six”, the “Patients with nausea and vomiting grade III” value [6] was “three” and the “Dose limiting toxicity (DLT)” value ([6]; ip) was “acute hypotension, chills and fever”. For the same molecule, the “Patients with generalized transient skin rash” value ([6]; ip) was “four”, the “Inhibition of DNA topoisomerase I” value (DNA topoisomerase I) was “potent inhibitor” and the Vss for lactone ([7]; IV administration, ref Herben et al) was 94 L/m2. For the same molecule, the “Terminal T1/2 for peritoneal topotecan” value ([7]; continuous IP infusion, ref Plaxe et al, 1998) was 2.7 h, the AUC (clinical [8]; 5 mg/m2, AUC) was 81 ng·h/mL and the MRT (clinical [8]; 5 mg/m2, MRT) was 7 h. It also gave a half-life (clinical [8]; 5 mg/m2, T1/2) of 4.6 h, an AUC (clinical [8]; 10 mg/m2, AUC) of 107 ng·h/mL and a Cmax (clinical [8]; 10 mg/m2, Cmax) of 14 ng/mL. It also gave an MRT (clinical [8]; 10 mg/m2, MRT) of 6.5 h, a half-life (clinical [8]; 10 mg/m2, T1/2) of 3.9 h and a Tmax (clinical [8]; 10 mg/m2, Tmax) of 1.7 h. It also gave a Tmax (clinical [8]; 15 mg/m2, Tmax) of 1.6 h, an MRT (clinical [8]; 20 mg/m2, MRT) of 8.1 h and a half-life (clinical [8]; 20 mg/m2, T1/2) of 4.4 h. For the same molecule, the Tmax (clinical [8]; 20 mg/m2, Tmax) was 3 h, the Cmax (clinical [8]; 30 mg/m2, Cmax) was 145 ng/mL and the Tmax (clinical [8]; 30 mg/m2, Tmax) was 1.8 h. The half-life (clinical [8]; T1/2) was 5.2 h, the half-life (clinical [8]; T1/2 of lactone in this study (discussion)) was 5.5 h and the Tmax (clinical [8]; Tmax (time to peak plasma level after start of IP administration)) was 2.1 h. The Recommended dosage ([9]; continuous 24-h IP infusion, ref Plaxe et al, 1998) was 3 mg/m2, the “Dose limiting toxicity in most studies” value ([9]; ref Abbruzzese et al, 1993, Kantarjian et al, Rowinsky et al, 1994, Van Warmerdam et al, 1995, Hochster et al) was “neutropenia” and the “Tmax (time to peak plasma level after start of IP administration)” value [10] was 2.7 ± 1.1 h. The “Dose level from which plasma concentrations required for cytotoxicity in vitro were reached” value ([10]; ip) was at least 15 mg/m2, the T1/2 ([10]; ip) was 3.7 ± 1.3 h and the MRT ([10]; ip, 20 mg/m2) was 6.9 h. For the same molecule, the “Maximum tolerated dose (MTD)” value [11] was 20 mg/m2, the “Partial responses (> 50% decrease in repeated CA125 levels)” value (recurrent ovarian cancer; biochemically evaluable patients) was 6 of 13 and the “Stable disease for 6-8 cycles” value (recurrent ovarian cancer; clinically evaluable patients) was 5 of 8. For the same molecule, the Complete clinical responses (recurrent ovarian cancer; pretreated patients, IP 5-30 mg/m2) was “no complete clinical responses” and the “Patients with progressive disease” value (recurrent ovarian cancer; three by marker and three by clinical parameters) was “six”.
